From patent publication US6538000B1, “Tricyclic dihydropyrimidine potassium channel openers” (Abbott Laboratories, priority 1999, dated 2003)

Tests used:
potassium channels [1] = biological target: potassium channels (Sus scrofa, UniProt F1SR11); test: Functional potassium channel opening activity in isolated bladder strips (field-stimulated twitch); parameters: species or system Landrace pig; conditions: for Emax: pig, read-out: Efficacy (% P1075), Landrace pig bladder strips, maximal efficacy relative to P1075
Procedure: Compounds of the present invention were evaluated for functional potassium channel opening activity using tissue strips obtained from Landrace pig bladders.
Landrace pig bladders were obtained from female Landrace pigs of 9-30 kg. Landrace pigs were euthanized with an intraperitoneal injection of pentobarbital solution, Somlethal®, J. A. Webster Inc., Sterling Mass. The entire bladder was removed and immediately placed into Krebs Ringer bicarbonate solution (composition, mM: NaCl, 120; NaHCO3, 20; dextrose, 11; KCl, 4.7; CaCl2, 2.5; MgSO4, 1.5; KH2PO4, 1.2; K2EDTA, 0.01, equilibrated with 5% CO2/95% O2 pH 7.4 at 37° C.). Propranolol (0.004 mM) was included in all of the assays to block β-adrenoceptors. The trigonal and dome portions were discarded. Strips 3-5 mm wide and 20 mm long were prepared from the remaining tissue cut in a circular fashion. The mucosal layer was removed. One end was fixed to a stationary glass rod and the other to a Grass FT03 transducer at a basal preload of 1.0 gram. Two parallel platinum electrodes were included in the stationary glass rod to provide field stimulation of 0.05 Hz, 0.5 milli-seconds at 20 volts. This low frequency stimulation produced a stable twitch response of 100-500 centigrams. Tissues were allowed to equilibrate for at least 60 minutes and primed with 80 mM KCl. A control concentration response curve (cumulative) was generated for each tissue using the potassium channel opener P1075 as the control agonist. […] After a 60 minute rinsing period, a concentration response curve (cumulative) was generated for the test agonist in the same fashion as that used for the control agonist P1075. The maximal efficacy of each compounds (expressed as % relative to P1075) is reported. […] Agonist potencies were also expressed as an index relative to P1075. The index was calculated by dividing the ED50 for P1075 by the ED50 for the test agonist in a given tissue. […]

potassium channels [2] = biological target: potassium channels (Cavia porcellus, UniProt A0A286XYR9); test: Membrane hyperpolarization (MHP) assay, DiBAC(4)3 FLIPR, primary cultured guinea-pig urinary bladder (GPB) cells; type: cell-based
Procedure: Compounds were evaluated for potassium channel opening activity using primary cultured guinea-pig urinary bladder (GPB) cells.
For the preparation of urinary bladder smooth muscle cells, urinary bladders were removed from male guinea-pigs (Hartley, Charles River, Wilmington, Mass.) weighing 300-400 g and placed in ice-cold Ca^2+-free Krebs solution (Composition, mM: KCl, 2.7; KH2PO4, 1.5; NaCl, 75; Na2HPO4, 9.6; Na2HPO4.7H2O, 8; MgSO4, 2; glucose, 5; HEPES, 10; pH 7.4). Cells were isolated by enzymatic dissociation as previously described with minor modifications in (Klockner, U. and Isenberg, G., Pflugers Arch. 1985, 405, 329-339), hereby incorporated by reference. […]
Functional activity at potassium channels was measured by evaluating changes in membrane potential using the bis-oxonol dye DiBAC(4)3 (Molecular Probes) in a 96-well cell-based kinetic assay system, Fluorescent Imaging Plate Reader (FLIPR) (K. S. Schroeder et al., J. Biomed. Screen., v. 1 pp. 75-81 (1996)), hereby incorporated by reference. […] With increasing membrane potential (for example, K^+ depolarization), the probe further partitions into the cell; this is measured as an increase in fluorescence due to dye interaction with intracellular lipids and proteins. Conversely, decreasing membrane potential (hyperpolarization by potassium channel openers) evokes a decrease in fluorescence. […]

Sequence of potassium channels (Cavia porcellus, UniProt A0A286XYR9) (A0A286XYR9 1-1546): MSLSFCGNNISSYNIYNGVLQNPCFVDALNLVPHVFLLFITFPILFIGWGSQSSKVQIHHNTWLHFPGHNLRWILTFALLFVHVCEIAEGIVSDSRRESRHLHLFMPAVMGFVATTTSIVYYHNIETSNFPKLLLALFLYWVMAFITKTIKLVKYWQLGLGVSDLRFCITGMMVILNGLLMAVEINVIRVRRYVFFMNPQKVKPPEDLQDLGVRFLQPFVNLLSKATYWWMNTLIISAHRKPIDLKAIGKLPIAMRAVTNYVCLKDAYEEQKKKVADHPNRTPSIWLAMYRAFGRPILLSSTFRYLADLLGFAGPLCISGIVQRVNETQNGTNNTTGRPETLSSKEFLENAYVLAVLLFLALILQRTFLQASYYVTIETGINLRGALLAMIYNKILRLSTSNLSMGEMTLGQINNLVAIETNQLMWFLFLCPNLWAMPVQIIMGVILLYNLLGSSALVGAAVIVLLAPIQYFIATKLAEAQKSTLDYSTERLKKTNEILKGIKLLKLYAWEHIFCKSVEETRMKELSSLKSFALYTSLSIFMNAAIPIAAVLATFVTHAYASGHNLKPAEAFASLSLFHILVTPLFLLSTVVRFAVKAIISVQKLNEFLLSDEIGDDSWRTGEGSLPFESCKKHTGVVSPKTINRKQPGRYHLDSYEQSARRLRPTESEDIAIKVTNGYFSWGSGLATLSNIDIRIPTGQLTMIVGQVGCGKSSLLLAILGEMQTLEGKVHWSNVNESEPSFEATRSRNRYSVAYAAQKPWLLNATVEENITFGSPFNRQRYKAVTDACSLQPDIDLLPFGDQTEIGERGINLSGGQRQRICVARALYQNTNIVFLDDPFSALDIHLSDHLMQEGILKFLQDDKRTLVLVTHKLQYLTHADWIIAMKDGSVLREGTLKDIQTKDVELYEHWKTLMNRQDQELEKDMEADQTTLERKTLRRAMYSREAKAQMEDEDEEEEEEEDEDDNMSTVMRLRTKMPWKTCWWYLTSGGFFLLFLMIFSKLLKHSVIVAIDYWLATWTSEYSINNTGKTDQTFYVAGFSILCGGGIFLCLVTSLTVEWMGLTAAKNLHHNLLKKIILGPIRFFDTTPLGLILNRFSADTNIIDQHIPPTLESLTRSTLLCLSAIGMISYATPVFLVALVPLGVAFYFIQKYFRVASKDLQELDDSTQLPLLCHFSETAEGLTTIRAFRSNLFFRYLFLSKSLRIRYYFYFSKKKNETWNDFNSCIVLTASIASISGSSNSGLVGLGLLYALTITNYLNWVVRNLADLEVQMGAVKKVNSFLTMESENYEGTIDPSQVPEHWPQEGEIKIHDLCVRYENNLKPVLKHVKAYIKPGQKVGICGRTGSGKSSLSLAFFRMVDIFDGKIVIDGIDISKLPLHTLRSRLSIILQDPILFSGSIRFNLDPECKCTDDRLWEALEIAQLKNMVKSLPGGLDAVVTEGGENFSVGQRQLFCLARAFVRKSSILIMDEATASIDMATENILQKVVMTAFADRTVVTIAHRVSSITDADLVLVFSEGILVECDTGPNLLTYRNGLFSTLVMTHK
Sequence of potassium channels (Cavia porcellus, UniProt A0A286XYR9) (Q9JHJ9 whole entry partner): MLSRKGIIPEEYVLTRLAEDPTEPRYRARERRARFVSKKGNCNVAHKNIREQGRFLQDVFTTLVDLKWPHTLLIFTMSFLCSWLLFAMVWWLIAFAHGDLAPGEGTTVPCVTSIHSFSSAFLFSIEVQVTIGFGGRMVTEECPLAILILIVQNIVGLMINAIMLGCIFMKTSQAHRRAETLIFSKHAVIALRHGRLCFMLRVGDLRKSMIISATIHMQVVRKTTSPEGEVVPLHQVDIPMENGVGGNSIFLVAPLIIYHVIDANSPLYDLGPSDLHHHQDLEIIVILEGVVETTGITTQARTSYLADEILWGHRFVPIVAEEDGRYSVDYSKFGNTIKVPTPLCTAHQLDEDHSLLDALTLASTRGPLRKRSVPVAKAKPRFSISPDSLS

Which Emax (potassium channels [1]) does the source give for O=C1CCCC2=C1C(c1ccc(F)c(Br)c1)n1nccc1N2 (single isomer, unassigned; (-)) [Example 15, (−) 9-(3-Bromo-4-fluorophenyl)-5,6,7,9-tetrahydropyrazolo[5,1-b]quinazolin-8(4H)-one] here?
Its Emax is 100%.

For O=C1CCCC2=C1C(c1ccc(Br)c(F)c1)n1nccc1N2 (stereo not drawn) [Example 1, 9-(4-Bromo-3-fluorophenyl)-5,6,7,9-tetrahydropyrazolo[5,1-b]quinazolin-8(4H)-one], which Emax (potassium channels [1]) is on record?
The Emax was 96%.

Which melting point does the source give for O=C1CSCC2=C1C(c1ccc(F)c(Br)c1)n1nccc1N2 (stereo not drawn) [Example 2, 9-(3-Bromo-4-fluorophenyl)-5,9-dihydro-4H-pyrazolo[1,5-a]thiopyrano[3,4-d]pyrimidin-8(7H)-one] here?
The melting point was 160 to 163 °C.

With O=C1CCCC2=C1C(c1ccc(Cl)c(Cl)c1)n1ncc(Br)c1N2 (stereo not drawn) [Example 48, 3-Bromo-9-(3,4-dichlorophenyl)-5,6,7,9-tetrahydropyrazolo[5.1-b]quinazolin-8(4H)-one] as the compound, how does the “Maximal Response (% P1075)” value (potassium channels [2]; maximal steady-state hyperpolarization in GPB cells, normalized to 10 μM P1075 = 100%) read?
The value was 113 % P1075.

And the EC50 (potassium channels [2]; membrane hyperpolarization in GPB cells, concentration that elicits 50% of the maximal response for the test sample)?
The EC50 was 33 nM.

Which “effect on stimulated twitch / stimulated contractions of the bladder” value (potassium channels [1]; field stimulation 0.05 Hz, 0.5 ms, 20 volts, P1075 10^−9 to 10^−5 M) does the source give for CCC(C)(C)NC(=NC#N)Nc1cccnc1 [Example P1075, N″-cyano-N-(tert-pentyl)-N′-(3-pyridinyl)guanidine, reference compound] here?
Its value is “completely eliminated the stimulated twitch”.
